Assays:
[1] = tested on: Lactobacillus plantarum CJLP133; assay: High-concentration culturing of lactic acid bacteria, number of live bacteria; type: cell-based; conditions: 0.1% in MRS liquid medium; from live bacteria counts
Experimental: (§1) A Lactobacillus plantarum CJLP133 strain was cultured at 37° C. for 11 hours in an MRS liquid medium (Difco, USA) containing 0.1% of cysteine monohydrochloride.
(§2) A Lactobacillus plantarum CJLP133 strain was cultured at 37° C. for 11 hours in an MRS liquid medium (Difco, USA) not containing 0.1% of cysteine monohydrochloride.
A lactic acid bacteria culture solution was diluted with sterilized physiological water and smeared so that 30 to 300 colonies were formed in an MRS agar plate medium, and then cultured at 37° C. for 24 hours. The number of colonies observed after the culturing was counted and calculated as the number of live bacteria per mL.

[2] = tested on: Lactobacillus plantarum CJLP133; assay: High-concentration culturing of lactic acid bacteria, O.D. value; type: cell-based; conditions: 0.1% in MRS liquid medium; from O.D. results
Experimental: as §1, §2
The evaluation of the lactic acid bacteria culturing was measured by diluting a lactic acid bacteria culture solution 20 times at 600 nm using a spectrophotometer (NanoPhotometer, IMPLEN) according to the method for measuring an optical density (O.D.) value of Korean Food Additives Codex.

## Cl.N[C@@H](CS)C(=O)O [cysteine monohydrochloride]
[1]
  ability to accelerate the growth of lactic acid bacteria (in words): excellent
[2]
  ability to accelerate the growth of lactic acid bacteria (in words): excellent
